# Patent publication US20260250320A1, “LIPIDATED PEPTIDE INHIBITORS OF INTERLEUKIN-23 RECEPTOR” (Janssen Pharmaceutica NV, priority 2023, published 2026)
# *1 amine or outer side, *2 acyl side, *3 side chain or, on linkers, in order; H or OH if unused. Where a SMILES comes first, the peptide text is derived from it. Bridges are numbered along the chain shown (N, C = ends). Side-chain parts run from the residue outwards. [ ]: non-standard residue; d: D form. The star is where a group is joined. X8 = CC(=O)[C@H](CCCCNC(=O)CC[C@H](NC(=O)CCCCCCCCCCCCCCCCC(=O)O)C(=O)O)N(C)*; Me3N+CH2CH2(OCH2CH2)4CO = C[N+](C)(C)CCOCCOCCOCCOCCC(=O)*; PEG12 = NCCOCCOCCOCCOCCOCCOCCOCCOCCOCCOCCOCCOCCC(=O)O; Trp(7-Me) = Cc1cccc2c(C[C@H](N)C(=O)O)c[nH]c12; C18 diacid = O=C(O)CCCCCCCCCCCCCCCCC(=O)*; X6 = CN(CC[C@H](N[*:1])C(=O)[*:2])[*:3]; γGlu = O=C(O)[C@H](CCC(=O)[*:2])N[*:1]; 2Nal = N[C@@H](Cc1ccc2ccccc2c1)C(=O)O; AEF = NCCOc1ccc(C[C@H](N)C(=O)O)cc1; X2 = C[N+](C)(C)C[C@@H](CC(=O)O)N*; X7 = C[N+](C)(C)CCOCCOCCOCCOC(=O)*; 3Pal = N[C@@H](Cc1cccnc1)C(=O)O; Pen = CC(C)(S)[C@H](N)C(=O)O; Suc = O=C(CCC(=O)[*:2])[*:1]; Thp = NC1(C(=O)O)CCOCC1; AEEA = NCCOCCOCC(=O)O; Sar = CNCC(=O)O
# Key:
# [1] = system: IL-23-stimulated phosphorylated STAT3 in peripheral blood mononuclear cells (PBMCs); experiment: PBMC pSTAT3 Assay; type: cell-based; settings: PBMCs from healthy donors; 30 min preincubation with peptide; IL-23 5 ng/mL for 30 min; phospho-STAT3 by MSD
# Procedure, shortened: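 Healthy-donor PBMCs expanded 4 days on anti-CD3 with 100 ng/mL IL-1β, starved ~4 h in RPMI-0.1% BSA, preincubated 30 min with peptide, then stimulated 30 min at 37 °C with 5 ng/mL IL-23. Lysate pSTAT3 measured by MSD phospho-STAT panel; IC50 derived.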
# [2] = biological target: T1, IL-23R (Homo sapiens, UniProt Q5VWK5); experiment: IL23R Reporter Assay; type: cell-based; settings: HEK293 cells containing IL-23R, IL-12Rβ1 and STAT-inducible firefly luciferase reporter; 10 ng/mL IL-23 (EC90); 5 h
# T1 construct: HEK293 cells containing IL-23R, IL-12Rβ1 and a firefly luciferase reporter gene driven by a STAT-inducible promoter (Promega); host or cells: HEK293
# T1 sequence (Q5VWK5 24-629): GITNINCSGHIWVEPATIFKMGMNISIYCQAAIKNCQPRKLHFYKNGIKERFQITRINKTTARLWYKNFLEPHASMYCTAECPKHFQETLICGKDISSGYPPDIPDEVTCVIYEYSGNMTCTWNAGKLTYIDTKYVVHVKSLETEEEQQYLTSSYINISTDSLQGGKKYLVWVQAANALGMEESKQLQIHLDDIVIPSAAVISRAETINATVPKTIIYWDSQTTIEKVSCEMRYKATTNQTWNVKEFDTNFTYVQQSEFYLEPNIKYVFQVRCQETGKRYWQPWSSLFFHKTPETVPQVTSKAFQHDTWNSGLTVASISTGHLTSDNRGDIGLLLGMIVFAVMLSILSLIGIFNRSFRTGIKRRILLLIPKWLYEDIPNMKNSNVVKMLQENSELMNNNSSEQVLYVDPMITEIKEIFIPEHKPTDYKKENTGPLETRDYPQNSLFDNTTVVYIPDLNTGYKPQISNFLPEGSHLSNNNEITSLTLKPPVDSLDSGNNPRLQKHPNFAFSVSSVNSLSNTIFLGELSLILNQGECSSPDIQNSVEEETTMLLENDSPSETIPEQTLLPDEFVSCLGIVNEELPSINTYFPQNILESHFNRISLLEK
# Procedure, shortened: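 HEK293 cells carrying IL-23R, IL-12Rβ1 and a STAT-driven firefly luciferase reporter (4000 cells/well) received compound, then 10 ng/mL IL-23 solution (EC90), and were incubated for 5 h at 37° C. BioGlo luminescence was normalised to IL-23 alone (0%) and 30 μM control inhibitor (100%). IC50 came from a 4-parameter Hill fit.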
SMILES,IC50 [1] [nM],IC50 [2] [nM]
"CC(=O)NCCCC[C@@H]1NC(=O)[C@H](Cc2c[nH]c3c(C)cccc23)NC(=O)[C@H]([C@@H](C)O)NC(=O)[C@H](CC(N)=O)NC(=O)[C@@H](NC(C)=O)C(C)(C)SSC(C)(C)[C@@H](C(=O)N[C@@H](Cc2ccc(OCCN)cc2)C(=O)N[C@@H](Cc2ccc3ccccc3c2)C(=O)NC2(C(=O)N[C@@H](CCC(=O)O)C(=O)N[C@@H](CC(N)=O)C(=O)N[C@@H](Cc3cccnc3)C(=O)N(C)CC(=O)N[C@@H](CCCCNC(=O)CCOCCOCCOCCOCCOCCOCCOCCOCCOCCOCCOCCOCCNC(=O)CC[C@H](NC(=O)CCCCCCCCCCCCCCCCCCC(=O)O)C(=O)O)C(N)=O)CCOCC2)NC1=O [compound 103, MeCO-Pen(3)-N-T-7MeW-K(Ac)-Pen(3)-AEF-2Nal-THP-E-N-3Pya-Sar-K(PEG12gEC20OH)-CONH2]",< 0.5,< 50
"CC(=O)NCCCC[C@@H]1NC(=O)[C@H](Cc2c[nH]c3c(C)cccc23)NC(=O)[C@H]([C@@H](C)O)NC(=O)[C@H](CCCCNC(=O)CCOCCOCCOCCOCCOCCOCCOCCOCCOCCOCCOCCOCCNC(=O)CC[C@H](NC(=O)CCCCCCCCCCCCCCCCC(=O)O)C(=O)O)NC(=O)[C@@H](NC(=O)[C@@H](CCCNC(=N)N)NC(C)=O)C(C)(C)SSC(C)(C)[C@@H](C(=O)N[C@@H](Cc2ccc(OCCN)cc2)C(=O)N[C@@H](Cc2ccc3ccccc3c2)C(=O)NC2(C(=O)N[C@@H](CCC(=O)O)C(=O)N[C@@H](CC(N)=O)C(=O)N[C@@H](Cc3cccnc3)C(=O)N(C)CC(N)=O)CCOCC2)NC1=O [compound 99, MeCO-r-Pen(3)-K(PEG12gEC20OH)-T-7MeW-K(Ac)-Pen(3)-AEF-2Nal-THP-E-N-3Pya-Sar-CONH2] (Ac-[dR][Pen]K([PEG12-γGlu-C18 diacid])T[Trp(7-Me)]K(Ac)[Pen][AEF][2Nal][Thp]EN[3Pal][Sar]-NH2; disulfide 2-7)",< 0.5,< 50
"CC(=O)N[C@H](CCCNC(=N)N)C(=O)N[C@@H]1C(=O)N[C@@H](CC(N)=O)C(=O)N[C@@H]([C@@H](C)O)C(=O)N[C@@H](Cc2c[nH]c3c(C)cccc23)C(=O)N[C@@H](CCCCNC(=O)CCC(=O)N[C@H](CC(=O)O)C[N+](C)(C)C)C(=O)N[C@H](C(=O)N[C@@H](Cc2ccc(OCCNC(=O)COCCOCCNC(=O)COCCOCCNC(=O)CC[C@H](NC(=O)CCCCCCCCCCCCCCCCC(=O)O)C(=O)O)cc2)C(=O)N[C@@H](Cc2ccc3ccccc3c2)C(=O)NC2(C(=O)N[C@@H](CCC(=O)O)C(=O)N[C@@H](CC(N)=O)C(=O)N[C@@H](Cc3cccnc3)C(=O)N(C)CC(N)=O)CCOCC2)C(C)(C)SSC1(C)C [compound 13, MeCO-r-Pen(3)-N-T-7MeW-K(d)-Pen(3)-AEF(PEG2gEC18OH)-2Nal-THP-E-N-3Pya-Sar-CONH2] (Ac-[dR][Pen]NT[Trp(7-Me)]K([Suc-X2])[Pen][AEF]([AEEA-AEEA-γGlu-C18 diacid])[2Nal][Thp]EN[3Pal][Sar]-NH2; disulfide 2-7)",0.5 to 5,50 to 500
"CC(=O)[C@H](CCCCNC(=O)CC[C@H](NC(=O)CCCCCCCCCCCCCCCCC(=O)O)C(=O)O)N(C)C(=O)[C@H](Cc1cccnc1)NC(=O)[C@H](CC(N)=O)NC(=O)[C@H](CCC(=O)O)NC(=O)C1(NC(=O)[C@H](Cc2ccc3ccccc3c2)NC(=O)[C@H](Cc2ccc(OCCN)cc2)NC(=O)[C@H]2NC(=O)[C@H](CCN(C)C(=O)OCCOCCOCCOCC[N+](C)(C)C)NC(=O)[C@H](Cc3c[nH]c4c(C)cccc34)NC(=O)[C@H]([C@@H](C)O)NC(=O)[C@H](CC(=O)N(C)C)NC(=O)[C@@H](NC(=O)CCOCCOCCOCCOCC[N+](C)(C)C)C(C)(C)SSC2(C)C)CCOCC1 [compound 106, cPEG5aCO-Pen(3)-N(N(Me)2)-T-7MeW-Dab(NMecPEG5a)-Pen(3)-AEF-2Nal-THP-E-N-3Pya-NMeK(gEC18OH)-CONH2] ({Me3N+CH2CH2(OCH2CH2)4CO}-[Pen]D(NMe2)T[Trp(7-Me)][X6](X7)[Pen][AEF][2Nal][Thp]EN[3Pal]-X8; disulfide 1-6)",0.5 to 5,50 to 500
